Results taken from publication PMC7801380, “Development of phenotypic assays for identifying novel blockers of L-type calcium channels in neurons” (Scientific Reports, 2021).
Like-named read-outs stand apart in the source and are kept apart here. One block for each compound: values may come before it.

What was measured:
[1] = system: L-type calcium channels (LTCCs); experiment: Calcium flux (FLIPR) assay, Bay K8644-induced responses in rat primary cortical cultures; assay type: cell-based; conditions: for Block of Bay K8644-evoked calcium fluorescent response: compound 3 µM
Phenylalkylamine site = experiment: Rat cortex binding, phenylalkylamine site ([3H]D888); conditions: [3H]D888 3 nM
Experimental: (§1) The in-vitro binding studies were conducted by Eurofins (France) using rat cortex. […] The IC50 values (the concentration that causes half-maximal inhibition of control specific binding) were determined by non-linear regression analysis of the competition curves using Hill equation: Y = […] Y = specific binding, A = left asymptote of the curve, D = right asymptote of the curve, C = compound concentration, and nH = slope factor. Analyses were performed using software developed at Eurofins (Hill software) and validated by comparison with data generated by the commercial software SigmaPlot 4.0. […] KD values were determined from Scatchard plots.

LTCC currents = experiment: Patch clamp, LTCC currents in rat cortical neurons; assay type: cell-based
CaV1.2 = CaV1.2 (Homo sapiens, UniProt Q13936); experiment: in vitro; conditions: pH 7.4
Benzothiazepine site = experiment: Rat cortex binding, benzothiazepine site ([3H]diltiazem); conditions: [3H]diltiazem 15 nM
Experimental: as §1

DHP site = experiment: Rat cortex binding, DHP site ([3H]nitrendipine); conditions: [3H]nitrendipine 0.1 nM
Experimental: as §1

VGCCs = experiment: Calcium fluorescent response to high [K+] in rat cortical cultures; assay type: cell-based; conditions: 100 mM K+, compound 3 µM, holding [K+] 20 mM
[2] = PW library screen hit confirmation, 1.1 µM Bay K8644, holding [K+] 20 mM, read-out: FLIPR IC50 Rat cortical culture
[3] = 300 nM Bay K8644, holding [K+] 20 mM, read-out: IC50, inhibition of Bay K-induced responses (calcium flux)
[4] = Vhold/Vtest -50/-20 mV, 300 nM Bay K8644
[5] = Vhold/Vtest -50/-20 mV, 300 nM Bay K8644, read-out: IC50, LTCC currents

Chain of CaV1.2 (Q13936 1-2138 isoform Q13936-12): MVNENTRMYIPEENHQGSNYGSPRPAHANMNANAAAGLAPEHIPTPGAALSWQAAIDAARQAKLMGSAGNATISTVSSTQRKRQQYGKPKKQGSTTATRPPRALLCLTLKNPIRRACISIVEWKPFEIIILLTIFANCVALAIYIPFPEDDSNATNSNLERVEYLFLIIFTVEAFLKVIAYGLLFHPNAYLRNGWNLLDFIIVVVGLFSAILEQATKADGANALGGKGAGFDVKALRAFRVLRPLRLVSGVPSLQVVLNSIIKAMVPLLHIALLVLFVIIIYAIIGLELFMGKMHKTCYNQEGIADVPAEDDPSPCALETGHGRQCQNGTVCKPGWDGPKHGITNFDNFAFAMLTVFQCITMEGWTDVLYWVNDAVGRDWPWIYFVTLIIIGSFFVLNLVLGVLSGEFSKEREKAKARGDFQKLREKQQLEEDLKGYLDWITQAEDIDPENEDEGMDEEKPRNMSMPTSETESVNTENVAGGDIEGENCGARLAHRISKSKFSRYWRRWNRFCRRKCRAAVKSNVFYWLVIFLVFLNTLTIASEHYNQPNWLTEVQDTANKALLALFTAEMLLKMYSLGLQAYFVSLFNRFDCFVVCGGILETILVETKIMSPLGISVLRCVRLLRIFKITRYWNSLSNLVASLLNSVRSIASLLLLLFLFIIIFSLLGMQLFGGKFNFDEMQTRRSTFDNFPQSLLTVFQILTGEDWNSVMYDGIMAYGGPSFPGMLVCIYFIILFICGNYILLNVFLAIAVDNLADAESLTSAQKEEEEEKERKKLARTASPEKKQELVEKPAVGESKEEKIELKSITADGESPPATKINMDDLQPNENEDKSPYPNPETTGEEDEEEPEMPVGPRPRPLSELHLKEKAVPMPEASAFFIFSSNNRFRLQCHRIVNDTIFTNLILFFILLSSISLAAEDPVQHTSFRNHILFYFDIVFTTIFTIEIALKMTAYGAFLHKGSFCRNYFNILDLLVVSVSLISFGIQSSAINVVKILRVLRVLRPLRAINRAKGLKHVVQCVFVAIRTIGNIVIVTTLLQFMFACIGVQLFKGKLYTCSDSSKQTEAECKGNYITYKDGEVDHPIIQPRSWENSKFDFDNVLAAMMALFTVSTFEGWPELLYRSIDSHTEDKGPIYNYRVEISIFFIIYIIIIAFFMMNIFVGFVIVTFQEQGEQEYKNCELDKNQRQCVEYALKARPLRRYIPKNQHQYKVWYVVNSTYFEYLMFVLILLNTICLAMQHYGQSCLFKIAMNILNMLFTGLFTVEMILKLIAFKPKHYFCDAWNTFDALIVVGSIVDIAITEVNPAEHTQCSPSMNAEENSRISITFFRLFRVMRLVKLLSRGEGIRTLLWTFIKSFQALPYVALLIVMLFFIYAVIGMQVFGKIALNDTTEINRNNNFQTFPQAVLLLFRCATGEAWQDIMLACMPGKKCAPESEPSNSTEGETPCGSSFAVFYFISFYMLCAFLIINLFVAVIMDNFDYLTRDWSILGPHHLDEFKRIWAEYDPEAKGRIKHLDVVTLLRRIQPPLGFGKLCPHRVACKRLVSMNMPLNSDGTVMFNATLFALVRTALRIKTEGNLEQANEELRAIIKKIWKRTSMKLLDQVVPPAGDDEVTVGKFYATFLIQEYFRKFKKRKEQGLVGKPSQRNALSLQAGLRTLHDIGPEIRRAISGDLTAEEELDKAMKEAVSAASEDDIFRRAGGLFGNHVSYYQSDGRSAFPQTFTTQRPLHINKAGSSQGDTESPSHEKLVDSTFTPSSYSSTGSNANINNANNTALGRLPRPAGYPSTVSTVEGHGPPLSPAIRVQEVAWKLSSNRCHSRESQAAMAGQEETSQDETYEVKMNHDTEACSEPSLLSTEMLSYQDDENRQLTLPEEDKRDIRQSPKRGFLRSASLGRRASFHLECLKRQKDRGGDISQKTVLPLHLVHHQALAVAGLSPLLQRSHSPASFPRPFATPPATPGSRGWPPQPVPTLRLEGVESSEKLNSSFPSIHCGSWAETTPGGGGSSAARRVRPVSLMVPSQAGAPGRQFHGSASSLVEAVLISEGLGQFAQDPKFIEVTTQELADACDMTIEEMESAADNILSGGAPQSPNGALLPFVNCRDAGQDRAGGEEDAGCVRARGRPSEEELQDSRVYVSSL

- IC50 [1, 2]: 104 nM
SMILES: COC(=O)C1=C(C)NC(C)=C(C(=O)OC2CCCN(Cc3ccccc3)C2)C1c1cccc([N+](=O)[O-])c1 (centres unmarked) [Benidipine]

- IC50 [1, 2]: 290 nM
SMILES: COC(=O)C1=C(C)NC(C)=C(C(=O)OCCN(C)Cc2ccccc2)C1c1cccc([N+](=O)[O-])c1 (centres unmarked) [Nicardipine]

- IC50 (Phenylalkylamine site; n = 4, read-out: IC50 positive control, phenylalkylamine site binding): 26.8 ± 3.6 nM
SMILES: COc1ccc(CCN(C)CCCC(C#N)(c2cc(OC)c(OC)c(OC)c2)C(C)C)cc1OC (centres unmarked) [D600]

SMILES: CN1CCC(=C2c3ccccc3C=Cc3ccccc32)CC1 [Cyproheptadine]
- % block of LTCC currents (LTCC currents; 3 µM compound, -50/-20 mV, 300 nM Bay K8644): 75.2 ± 9.1%
- inhibition at 3 µM (CaV1.2): 52.3 ± 6.1%

- IC50 [1, 2]: 680 nM
SMILES: Fc1ccc(C(OCCN2CCN(CCCc3ccccc3)CC2)c2ccc(F)cc2)cc1 [GBR 12909]

- IC50 [1, 2]: 28 nM
SMILES: COC(=O)C1=C(C#N)NC(C)=C(C(=O)OC(C)C)C1c1cccc([N+](=O)[O-])c1 (centres unmarked) [Nilvadipine]

- IC50 [1, 3]: 27100 nM
- IC50 (Benzothiazepine site; n = 4, read-out: IC50 positive control, benzothiazepine site binding): 42.7 ± 6.8 nM
SMILES: COc1ccc([C@@H]2Sc3ccccc3N(CCN(C)C)C(=O)[C@@H]2OC(C)=O)cc1 [diltiazem]

- IC50 [1, 2]: 710 nM
SMILES: Cc1cccc(C)c1NC(=O)CN1CCN(CCCC(c2ccc(F)cc2)c2ccc(F)cc2)CC1 [lidoflazine]

- IC50 [1, 2]: 820 nM
SMILES: CC(NCCC(c1ccccc1)c1ccccc1)c1ccccc1 (centres unmarked) [fendiline]

- IC50 [1, 2]: 140 nM
- IC50 (DHP site; n = 4, read-out: IC50 positive control, DHP site binding): 0.19 ± 0.03 nM
SMILES: CCOC(=O)C1=C(C)NC(C)=C(C(=O)OC)C1c1cccc([N+](=O)[O-])c1 (centres unmarked) [Nitrendipine]

- IC50 [1, 2]: 8 nM
SMILES: COC(=O)C1=C(C)NC(C)=C(C(=O)OC(C)C)C1c1cccc2nonc12 (centres unmarked) [Isradipine]

- EC50 ([1]; holding [K+] 20 mM, read-out: EC50, activation of LTCCs (calcium flux)): 204 nM
- EC50 (LTCC currents; Vhold -50 mV, Vtest -20 mV, read-out: EC50, Bay K8644 concentration dependence (patch clamp)): 40.6 nM
SMILES: COC(=O)C1=C(C)NC(C)=C([N+](=O)[O-])C1c1ccccc1C(F)(F)F (centres unmarked) [Bay K8644]

- IC50 [1, 3]: 142 nM
- IC50 [1, 2]: 110 nM
- IC50 (LTCC currents; Vhold/Vtest -50/0 mV, control (no Bay K), read-out: IC50, patch clamp current): 28.3 ± 6.5 nM
- IC50 (LTCC currents; Vhold/Vtest -50/-20 mV, 300 nM Bay K8644, listed as nimodipine, read-out: IC50, LTCC currents): 415 nM
- IC50 (LTCC currents; [5]): 401 ± 21.8 nM
- IC50 (LTCC currents; Vhold/Vtest -50/-20 mV, control (no Bay K), read-out: IC50, patch clamp current): 24.8 nM
- IC50 (LTCC currents; Vhold/Vtest -90/0 mV, control (no Bay K), read-out: IC50, patch clamp current): 4800 nM
SMILES: COCCOC(=O)C1=C(C)NC(C)=C(C(=O)OC(C)C)C1c1cccc([N+](=O)[O-])c1 (centres unmarked) [Nimodipine]
- Block of Bay K8644-evoked calcium fluorescent response ([1]; 1.1 µM Bay K8644, holding [K+] 20 mM): completely
- Block of Bay K8644-evoked calcium fluorescent response ([1]; 1.1 µM Bay K8644, holding [K+] 20 mM, listed as nimodipine): completely blocked
- Decrease of potency of inhibition by Bay K (LTCC currents; IC50 with 300 nM Bay K vs without, -50/-20 mV): 16.7 fold
- max % inhibition (fraction of sensitive current) (LTCC currents; Vhold/Vtest -50/0 mV, control (no Bay K)): 85.4 ± 3.7%
- max % inhibition (fraction of sensitive current) (LTCC currents; Vhold/Vtest -50/0 mV, control (no Bay K), listed as nimodipine): 85%
- max % inhibition of LTCC currents (LTCC currents; [4]): 99.1 ± 1.1%
- max % inhibition of LTCC currents (LTCC currents; Vhold/Vtest -50/-20 mV, 300 nM Bay K8644, listed as nimodipine): 99%
- max % inhibition (fraction of sensitive current) (LTCC currents; Vhold/Vtest -50/-20 mV, control (no Bay K)): 96.1 ± 0.8%
- max % inhibition (fraction of sensitive current) (LTCC currents; Vhold/Vtest -50/-20 mV, control (no Bay K), listed as nimodipine): 96%
- max % inhibition (fraction of sensitive current) (LTCC currents; Vhold/Vtest -90/0 mV, control (no Bay K)): 75%
- Block of high [K+]-evoked calcium fluorescent response (VGCCs): partially
- Block of high [K+]-evoked calcium fluorescent response (VGCCs; listed as nimodipine): partially blocked

- IC50 ([1]; PW library screen hit confirmation, 1.1 µM Bay K8644, holding [K+] 20 mM, listed as niclosamide, read-out: FLIPR IC50 Rat cortical culture): 79.5 ± 12.8 nM
- IC50 [1, 2]: 80 nM
- IC50 (LTCC currents; [5]): 183 ± 28.2 nM
- Ki (DHP site; rat cortical homogenates): > 30000 nM
- Ki (Phenylalkylamine site; rat cortical homogenates): > 30000 nM
- Ki (Benzothiazepine site; rat cortical homogenates): > 30000 nM
SMILES: O=C(Nc1ccc([N+](=O)[O-])cc1Cl)c1cc(Cl)ccc1O [Niclosamide]
- maximal % inhibition of LTCC-mediated calcium flux ([1]; cortical cultures, n = 3): 100%
- max % inhibition of LTCC currents (LTCC currents; [4]): full efficacy
- max % inhibition of LTCC currents (LTCC currents; Vhold/Vtest -50/-20 mV, 300 nM Bay K8644, listed as niclosamide): 100%
- 20–80% rise time (LTCC currents; at -20 mV, in presence of 200 nM compound): 16.1 ± 3.5 ms
- Current remaining after 400 ms of depolarization, % of the peak (LTCC currents; depolarization to -20 mV, 200 nM compound): 41.9 ± 7.5%
- inhibition at 0.1 µM (CaV1.2): 80.6 ± 4.9%

- IC50 [1, 2]: 57 nM
SMILES: CCOC(=O)C1=C(C)NC(C)=C(C(=O)OC)C1c1cccc(Cl)c1Cl (centres unmarked) [Felodipine]

- IC50 [1, 2]: 760 nM
SMILES: O=C1NCN(c2ccccc2)C12CCN(CCCC(c1ccc(F)cc1)c1ccc(F)cc1)CC2 [fluspirilene]

- IC50 [1, 2]: 453 nM
SMILES: CCOC(=O)C1=C(C)NC(C)=C(C(=O)OCC)C1c1ccccc1/C=C/C(=O)OC(C)(C)C [Lacidipine]
